In patent publication US8800906B2, “Use of transforming growth factor-beta neutralizing antibodies and fusion proteins thereof in treating pain” (The Board of Trustees of the Leland Stanford Junior …, priority 2010, dated 2014):
Blank lines part the entries; values can stand above or below the molecule they belong to.

Columns and labels:
[1] = tested on: SMAD3; conditions: cited from earlier work
[2] = target: T1, SMAD3 (Rattus norvegicus, UniProt P84025); test: Excitability of DRG neurons with TGF-β and SIS3; format: cell-based; conditions: SIS3 3 μM
T1 construct: endogenous in cells; host or cells: primary DRG neurons
T1 sequence (P84025 whole entry): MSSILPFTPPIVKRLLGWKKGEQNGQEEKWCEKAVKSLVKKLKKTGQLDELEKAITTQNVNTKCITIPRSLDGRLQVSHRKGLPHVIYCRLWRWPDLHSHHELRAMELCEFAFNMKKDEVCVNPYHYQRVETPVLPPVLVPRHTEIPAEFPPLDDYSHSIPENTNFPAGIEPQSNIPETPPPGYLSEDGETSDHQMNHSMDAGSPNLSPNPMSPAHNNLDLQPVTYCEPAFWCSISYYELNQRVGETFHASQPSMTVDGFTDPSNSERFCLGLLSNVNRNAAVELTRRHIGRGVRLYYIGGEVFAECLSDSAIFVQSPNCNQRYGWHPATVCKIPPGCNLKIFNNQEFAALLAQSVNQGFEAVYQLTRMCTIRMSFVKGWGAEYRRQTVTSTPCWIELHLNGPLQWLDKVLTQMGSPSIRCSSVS
Description: SIS3 was dissolved in DMSO and diluted in culture media that was added at the time of plating with a final concentration of 3 μM. After one hour, the culture wells received TGF-β1 (0.2 ng/ml) for further incubation. Most cells were patched at 12-24 h, and both agents were refreshed daily if incubated for over 24 h.

[3] = target: SMAD3 (Homo sapiens, UniProt P84022); conditions: cited from earlier work
Sequence of SMAD3 (Homo sapiens, UniProt P84022) (P84022 whole entry): as the sequence (P84025 whole entry) above

[4] = target: T2, TRPV1 (Rattus norvegicus, UniProt O35433); test: Capsaicin-induced inward current in DRG neurons; format: cell-based
T2 construct: endogenous in cells; host or cells: primary rat DRG neurons
T2 sequence (O35433 whole entry): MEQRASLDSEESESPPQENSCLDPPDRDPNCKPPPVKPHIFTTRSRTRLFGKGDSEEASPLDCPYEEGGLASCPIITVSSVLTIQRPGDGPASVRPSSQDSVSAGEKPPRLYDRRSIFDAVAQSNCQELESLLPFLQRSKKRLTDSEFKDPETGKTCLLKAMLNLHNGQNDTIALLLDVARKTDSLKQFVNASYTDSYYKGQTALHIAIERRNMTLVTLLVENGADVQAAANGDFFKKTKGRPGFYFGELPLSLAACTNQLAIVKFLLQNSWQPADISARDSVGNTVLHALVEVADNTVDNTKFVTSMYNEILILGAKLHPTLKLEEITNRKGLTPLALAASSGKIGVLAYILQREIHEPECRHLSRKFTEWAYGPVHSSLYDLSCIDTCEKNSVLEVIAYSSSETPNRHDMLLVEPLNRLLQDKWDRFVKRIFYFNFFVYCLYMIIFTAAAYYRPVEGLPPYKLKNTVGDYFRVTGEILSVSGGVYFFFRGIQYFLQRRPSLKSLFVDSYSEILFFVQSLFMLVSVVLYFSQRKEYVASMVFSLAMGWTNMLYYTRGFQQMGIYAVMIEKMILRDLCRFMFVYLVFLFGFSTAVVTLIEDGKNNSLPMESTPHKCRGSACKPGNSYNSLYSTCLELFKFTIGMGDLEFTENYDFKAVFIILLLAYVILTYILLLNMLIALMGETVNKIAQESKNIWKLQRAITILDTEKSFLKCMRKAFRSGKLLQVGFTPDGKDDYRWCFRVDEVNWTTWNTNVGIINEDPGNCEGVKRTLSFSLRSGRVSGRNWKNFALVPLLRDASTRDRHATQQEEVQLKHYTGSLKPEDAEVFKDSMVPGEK
Description: (§1) Electrophysiology. Whole-cell voltage patch-clamp recordings were conducted at room temperature (22-23° C.) on the stage of an inverted phase contrast microscope (Nikon Inc., Melville, N.Y.). The recording pipettes were pulled from borosilicate glass to give final resistances of […]. Data were acquired with Digidata interface (1200 series, Axon Instruments) and pClamp software (version 9.1, Axon Instruments). The concentrations of the electrode solutions (in mM) used in these experiments were as follows: for recording action potential, K^+ current and non-selective cationic current (pH adjusted to 7.3-7.4 using KOH): potassium gluconate (115), KCl (25), NaCl (5), HEPES (10), CaCl (1), EGTA (1.12) and ATP-Mg (2); for recording Na^+ current (pH adjusted to 7.3-7.4 using NaOH): CsF (110), MgCl2 (5), EGTA (11), NaCl (10) and HEPES (10). The cells were bathed in modified Tyrode saline consisting of (in mM): NaCl (135), KCl (5.4), MgCl2 (1), CaCl2 (2), NaH2PO3 (0.1), HEPES (10) and glucose (10). […] Action potentials were recorded in mode of I-clamp after observed membrane potential setting at I=0, and the currents were recorded by switching mode to v-clamp. The current signals were recorded to disk for off-line analysis using pCLAMP fit and Origin 7. Results were expressed as means±SE, n=number of cells. […]

[5] = tested on: TGF-β1, TGF-β2, and TGF-β3; conditions: cited from earlier work
[6] = tested on: rat DRG neurons; test: Whole-cell patch-clamp excitability of cultured DRG neurons; format: cell-based
Description: Dorsal Root Ganglia (DRG) neurons culture. Adult Sprague-Dawley rats (120-150 g) were sacrificed by decapitation. Thoracic and lumbar DRGs were then bilaterally dissected out and transferred to ice-cold Minimal Essential Medium (Gibco, Grand Island, N.Y.) supplemented with penicillin-streptomycin (2×, Gibco, Grand Island, N.Y.). After trimming axons and connective tissue, ganglia were transferred into enzyme solution, i.e., Hank's Balanced Salt Solution containing 5 mg/ml collagenase (Type 2, Worthington, Lakewood, N.J.), and incubated for three hours at 5% CO2-95% O2 37° C. A pellet was subsequently obtained by repeated trituration through flame-polished glass pipettes and centrifuged at 50×g for 10 minutes. Single cells were resuspended and plated onto poly-1-ornithine (Sigma) coated coverslips with neurobasal media (Gibco) supplemented with albumin solution (0.7%, Sigma), penicillin-streptomycin (2×), B27 with retinoic acid (2×, Invitrogen), beta-mercaptoethanol (0.11 mM, Gibco), mouse nerve growth factor ([…], Promega, Madison, Wis.) and L-glutamine (2×, Gibco). Recombinant TGF-β1 and TGF-β2 (Calbiochem, cat #616455, PF017) were dissolved in 10% ethanol in phosphate buffered saline (PBS) to yield a stock concentration of 10 ng/μl. TGF-β1 or TGF-β2 (10 ng/ml) was added to cultures at the beginning of incubation at 37° C. 5% CO2-95% O2.
Electrophysiology. Whole-cell voltage patch-clamp recordings were conducted at room temperature (22-23° C.) on the stage of an inverted phase contrast microscope (Nikon Inc., Melville, N.Y.). The recording pipettes were pulled from borosilicate glass to give final resistances of […]. Data were acquired with Digidata interface (1200 series, Axon Instruments) and pClamp software (version 9.1, Axon Instruments). The concentrations of the electrode solutions (in mM) used in these experiments were as follows: for recording action potential, K^+ current and non-selective cationic current (pH adjusted to 7.3-7.4 using KOH): potassium gluconate (115), KCl (25), NaCl (5), HEPES (10), CaCl (1), EGTA (1.12) and ATP-Mg (2); for recording Na^+ current (pH adjusted to 7.3-7.4 using NaOH): CsF (110), MgCl2 (5), EGTA (11), NaCl (10) and HEPES (10). The cells were bathed in modified Tyrode saline consisting of (in mM): NaCl (135), KCl (5.4), MgCl2 (1), CaCl2 (2), NaH2PO3 (0.1), HEPES (10) and glucose (10). The osmolality was maintained at 280-300 mOsm for the intracellular electrolyte and 300-330 mOsm for the extracellular bath solution. […] Action potentials were recorded in mode of I-clamp after observed membrane potential setting at I=0, and the currents were recorded by switching mode to v-clamp. The current signals were recorded to disk for off-line analysis using pCLAMP fit and Origin 7. Results were expressed as means±SE, n=number of cells.

[7] = tested on: DRG neurons; test: Patch-clamp excitability of DRG neurons from transgenic mice lacking glial TGF-β receptor response; format: cell-based, mouse
Excerpt: Transgenic mice. To decrease the response to TGF-β specifically in astrocytes, we took advantage of a dominant negative mutation in the type II TGF-β receptor that has been cloned into a bidirectional doxycycline-regulatable element (bi-tetO) that also drives enhanced green fluorescent protein (GFP). Andrews, Z. B. et al., 2006 Neurobiol Dis. 21, 568-75. TetO-TBR2-DN mice were obtained from Jackson Laboratories, Bar Harbor, Me. This line was crossed to a GFAP-tTA transgenic line (Jackson Laboratories). This line confers expression of tetO transgenes to astrocytes in the absence of doxycycline, and is induced by injuries, including stroke. DRGs were dissected from these mice and cultured as above.
(§2) Electrophysiology. Whole-cell voltage patch-clamp recordings were conducted at room temperature (22-23° C.) on the stage of an inverted phase contrast microscope (Nikon Inc., Melville, N.Y.). The recording pipettes were pulled from borosilicate glass to give final resistances of […]. Data were acquired with Digidata interface (1200 series, Axon Instruments) and pClamp software (version 9.1, Axon Instruments). The concentrations of the electrode solutions (in mM) used in these experiments were as follows: for recording action potential, K^+ current and non-selective cationic current (pH adjusted to 7.3-7.4 using KOH): potassium gluconate (115), KCl (25), NaCl (5), HEPES (10), CaCl (1), EGTA (1.12) and ATP-Mg (2); for recording Na^+ current (pH adjusted to 7.3-7.4 using NaOH): CsF (110), MgCl2 (5), EGTA (11), NaCl (10) and HEPES (10). The cells were bathed in modified Tyrode saline consisting of (in mM): NaCl (135), KCl (5.4), MgCl2 (1), CaCl2 (2), NaH2PO3 (0.1), HEPES (10) and glucose (10). The osmolality was maintained at 280-300 mOsm for the intracellular electrolyte and 300-330 mOsm for the extracellular bath solution. Agents such as capsaicin, capsazepine, TEA, 4AP, TTX etc were delivered through a valve control system (BPS-4, Scientific Instrument, New York). Prior to patch clamping a cell, the amplifier (Axopatch 200B, Axon Instruments, CA, USA) was zeroed so that any junction potential was balanced by an offset potential. High resistance (Gigaohm) seals were formed between the recording electrode and cell membrane and ruptured by suction using standard patch clamp recording methods. Action potentials were recorded in mode of I-clamp after observed membrane potential setting at I=0, and the currents were recorded by switching mode to v-clamp. The current signals were recorded to disk for off-line analysis using pCLAMP fit and Origin 7. Results were expressed as means±SE, n=number of cells.

[8] = tested on: Kv channels; test: Voltage-dependent K+ currents in DRG neurons; format: cell-based, rat
Description: as §2
TGF-β influences K^+ and Na^+ channel activity (FIGS. 6 and 7). Voltage-dependent potassium (Kv) currents play a fundamental role in determining neuronal excitability. […]

[9] = tested on: sodium channel; test: Sodium channel currents in DRG neurons; format: cell-based, rat
Description: as §1

[10] = tested on: conscious rats; test: Nocifensive behaviors to electrical stimulation of the pancreas after intrapancreatic infusion of TGF-β; format: in vivo; conditions: intra-pancreatic infusion, 400 ng per rat
Description: Intrapancreatic infusion of TGF-β. Rats were anesthetized with sodium nembutal (Abbott Laboratories, Chicago, Ill.) (50 mg/kg body weight, i.p.). The peritoneum was incised to expose the duodenum, and the duodenal loop was pulled out. The pancreatic duct entering the duodenum was identified under dissecting microscope, and a small niche was made into the duct with a 30-gauge needle. A polyethylene 10 tubing (0.61 mm outer diameter) (Becton Dickinson and Company, Franklin Lakes, N.J.) was guided into the duct and tied to secure its position. The position of the tube in the pancreatic duct was confirmed by observing bile flowing through the tubing. The common bile duct was ligated close to the liver to prevent entry of the injected substance into the liver. Similarly the duct was ligated near its entry into the duodenum. Four hundred μl (0.4 ml) per rat of 400 ng of TGF-β1 or TGF-β2 in 10% ethanol in phosphate buffered saline (PBS) or vehicle alone was injected through a syringe connected to the tubing. The tubing was carefully removed and bile flow from the liver into the duodenum was re-established. The abdominal cavity was closed with sutures and rats allowed to recover.
Behavioral Studies of Rats with Chronic Pancreatitis. […] The number of nocifensive behaviors observed during 5 min of stimulation period was counted. […]

[11] = tested on: spinal cord laminae I/II FOS positive cells; test: FOS immunochemistry in spinal cord after intrapancreatic TGF-β infusion and electrical stimulation; format: in vivo, rat; conditions: intra-pancreatic infusion 400 ng followed by ES
Description: FOS Immunochemistry. Eight rats were used for this experiment (TGF-β n=4; Vehicle n=4). TGF-β2 (400 ng) in 0.4 ml of 10% ETOH/PBS or vehicle alone were infused into pancreatic duct of rats. 24 hours later rats underwent noxious electrical stimulation of the pancreas (5 mA for 5 minutes). Thirty minutes later the rats were transcardially perfused with 150 ml of normal saline followed by ice cold 400 ml of 4% paraformaldehyde in 0.1M phosphate buffer (PB) pH 7.4. Spinal cord segments corresponding to DRG T8-T10 were identified, cut and post-fixed in 4% paraformaldehyde over night. The samples were then transferred to 30% sucrose in 0.1 M PB for 24 hours at 4° C. followed by freezing on dry ice with optimum cutting temperature (OCT). Frozen serial coronal sections (35 μm) were cut on a cryostat, collected in separate wells of a 24-well plate and stored floating in antifreeze at −20° C. We processed a total of 6 sections per segment. The sections were stained with a rabbit polyclonal primary antiserum directed against FOS (ab7963, Abcam, Cambridge Mass.), diluted (1:2000) in PB saline containing 3% normal goat serum and 0.1% Triton X-100, for 24 h at 4° C. […] The number of FOS positive cells in spinal cord laminae I/II were counted under 40× magnification from 6 slices per individual spinal segment per animal by two blinded investigators.

Molecule: NC(=O)c1ccc(-c2nc(-c3ccc4c(c3)OCO4)c(-c3ccccn3)[nH]2)cc1 [SB431542]
Smad3 phosphorylation [1]: selective inhibition of Smad3 phosphorylation

decrease in RMP induced by TGFβ ([2]; TGF-β 10 ng/ml, 48 hours): prevented the decrease in RMP
TGF-β1 induced changes in frequency of action potentials at 2× rheobase current ([2]; TGF-β1 0.2 ng/ml): attenuate
TGF-β1 induced changes in resting membrane potential (RMP) ([2]; TGF-β1 0.2 ng/ml): attenuate
TGF-β1 induced changes in rheobase ([2]; TGF-β1 0.2 ng/ml): attenuate
Molecule: Cc1cc2c(cc1C)CN(C(=O)/C=C/c1c(-c3ccccc3)n(C)c3ncccc13)CC2.Cl [SIS3]
production of extracellular matrix ([3]; TGF-β1-treated normal fibroblasts and scleroderma fibroblasts): blocked excessive production of extracellular matrix
Smad3 phosphorylation [3]: suppresses Smad3 phosphorylation

effect on capsaicin-induced inward current ([4]; middle sized neurons): suppressible
Molecule: Oc1cc2c(cc1O)CN(C(=S)NCCc1ccc(Cl)cc1)CCC2 [capsazepine, reference compound]

Molecule: GC1008: humanized TGF-β-neutralizing monoclonal antibody
neutralization of TGF-β ligands/isoforms [5]: capable of neutralizing all three TGF-β isoforms

RMP ([7]; transgenic mouse DRG preparations, 10 ng/ml): −49.7±5.5 mV
capsaicin induced current ([4]; neurons treated with TGF-β, n=17): 724.7±129.4 pA
Molecule: TGF-β
resting membrane potential (RMP) ([6]; rat DRG cultures exposed to TGF-β, n=21): −48.8±7.6 mV
proportion of tested cells showing multiple action potentials ([6]; rat DRG neurons): 43%
current pulse (rheobase) required for triggering an action potential ([6]; rat DRG neurons, n=11): 0.15±0.09 nA
number of action potentials evoked by two times rheobase current stimulation ([6]; rat DRG neurons, n=17): 2.75 Hz
tested neurons showing an absence of IA current ([8]; TGF-β treated neurons): 11 of 22
Itotal density ([8]; all Kv channels, DRG neurons in culture): did not result in a significant reduction
IA density ([8]; at +30 mV, n=10): 29.6±3.8 pA/pF
density of TTXR current ([9]; n=7): 114.25±27.32
density of total INa ([9]; n=23): 216.12±15.01

Molecule: TGF-β1: Recombinant TGF-β1 (Calbiochem)
behavioral response to noxious stimulation (electric stimulation, ES) [10]: hyperalgesic behavioral response
rheobase ([7]; transgenic mouse DRG): 0.03 nA
firing threshold ([7]; transgenic mouse DRG, n=7): −35 mV
spikes ([7]; transgenic mouse DRG, n=7): 2.8±1.5

B1: TGF-β2: Recombinant TGF-β2 (Calbiochem) (protein, UniProt P61812 303-414, looked up)
Transforming growth factor …: ALDAAYCFRNVQDNCCLRPLYIDFKRDLGWKWIHEPKGYNANFCAGACPYLWSSDTQHSRVLSLYNTINPEASASPCCVSQDLEPLTILYYIGKTPKIEQLSNMIVKSCKCS
modifications: Transforming growth factor beta-2
behavioral response to noxious stimulation (electric stimulation, ES) [10]: hyperalgesic behavioral response
FOS expression in the spinal cord [11]: greater FOS expression
